Measured values taken from paper PMC11945486, “TAS1R2/TAS1R3 Single-Nucleotide Polymorphisms Affect Sweet Taste Receptor Activation by Sweeteners: The SWEET Project” (Nutrients, 2025).

Molecular target: T1, human TAS1R2-A574T (subunit alone) (Homo sapiens, UniProt Q8TE23, A574T)
T1 construct: expressed in transfected cells; host or cells: HEK293T-Gα16gust44
T1 sequence (Q8TE23 20-839 A574T): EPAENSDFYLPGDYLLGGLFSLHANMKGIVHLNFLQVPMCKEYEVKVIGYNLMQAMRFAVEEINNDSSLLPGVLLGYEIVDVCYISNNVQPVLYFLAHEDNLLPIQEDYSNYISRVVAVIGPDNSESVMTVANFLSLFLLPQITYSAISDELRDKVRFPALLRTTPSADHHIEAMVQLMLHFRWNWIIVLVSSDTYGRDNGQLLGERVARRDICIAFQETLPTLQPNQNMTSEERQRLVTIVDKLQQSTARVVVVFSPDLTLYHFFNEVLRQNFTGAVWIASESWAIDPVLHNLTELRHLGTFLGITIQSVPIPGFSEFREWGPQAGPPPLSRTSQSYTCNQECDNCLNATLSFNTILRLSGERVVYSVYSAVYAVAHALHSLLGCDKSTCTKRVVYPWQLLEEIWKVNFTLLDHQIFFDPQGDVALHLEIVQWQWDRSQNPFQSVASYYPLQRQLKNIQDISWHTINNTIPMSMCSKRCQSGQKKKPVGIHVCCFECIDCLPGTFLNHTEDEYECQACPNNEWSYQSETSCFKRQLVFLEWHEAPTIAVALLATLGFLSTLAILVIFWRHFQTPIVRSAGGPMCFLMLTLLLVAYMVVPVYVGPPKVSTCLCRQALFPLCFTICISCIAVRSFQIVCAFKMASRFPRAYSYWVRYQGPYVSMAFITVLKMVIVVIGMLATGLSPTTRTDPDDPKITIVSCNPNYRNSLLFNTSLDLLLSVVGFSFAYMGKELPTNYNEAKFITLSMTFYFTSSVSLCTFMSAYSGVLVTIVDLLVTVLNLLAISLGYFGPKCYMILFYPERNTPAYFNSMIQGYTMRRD
Assay: Calcium mobilisation assay, TAS1R2-A574T subunit alone
Type: cell-based
From the text: The coding sequences for TAS1R2 and TAS1R3 were commercially synthesised, and the human codon was optimised for expression in human cells. The coding sequences of human TAS1R2 and TAS1R3 were subcloned and inserted into the mammalian expression vectors pcDNA6/myc-HisA and pcDNA4/myc-HisA (Invitrogen; Thermo Fisher Scientific; Illkirch, France) between the EcoRI and NotI restriction sites, generating the plasmids pcDNA6-TAS1R2 and pcDNA4-TAS1R3, respectively. To increase protein expression in mammalian cells, an upstream start codon was used, which was a sequence called MAX, corresponding to the QBI SP163 element also described in pcDNA4-HisMax (Invitrogen; Thermo Fisher Scientific; Illkirch, France). To measure the expression level of the receptor by immunohistochemistry, we used the FLAG sequence ([…]) in the C-terminal position, which encodes the FLAG tag epitope. […]
The HEK293T cells were kindly provided by Jay P. Slack (Givaudan Flavors Corporation; Cincinnati, OH, USA). […] The fluorescence intensity was measured for 90 s (excitation 488 nm, emission 510 nm) in an automated fluorometric FlexStation®3 Multi-Mode microplate reader (Molecular Devices; San Jose, CA, USA). […] The Ca^2+ changes were expressed as fractional changes in fluorescent light intensity: ΔF/F = (F − F0)/F0, where F was the fluorescent light intensity at each point, and F0 was the value of emitted fluorescent light prior to stimulus application. To calculate dose–response relationships, the changes in fluorescence upon stimulus application were averaged, mock-subtracted and baseline-corrected. […] The half-maximal effective concentrations (EC50 values) and maximal signal amplitudes were calculated using SigmaPlot software (version 15.0) (Systat Software; San Jose, CA, USA).
For in vitro calcium mobilisation assay performed on hTAS1R2-SNPs, hTAS1R3-SNPs and mTAS1R3-I60T, 6 to 7 concentrations were tested for each sweet compound, plus buffer alone. All concentration–receptor combinations were measured in duplicate, and each experiment was repeated at least 4 times (8 wells/concentration). […]

## C=C(C)[C@@H]1CC=C(/C=N/O)CC1 [Perillartine, perillartine]
  EC50: 85.3 ± 12.4 µM
  R1 = Variant EC50/WT EC50: 0.9
Maximal signal amplitude
  Max ΔF/F0: 0.25 ± 0.01
